Reference: ChEMBL document CHEMBL1134082, “Effect of zinc ion on the inhibition of carboxypeptidase A by imidazole-bearing substrate analogues” (Bioorg Med Chem Lett, 2001)

Experiments:
[1] = target: T1, Carboxypeptidase A1 (Bos taurus, UniProt P00730); test: Inhibitory constant of carboxypeptidase A (CPA) in absence of Zinc ion.
T1 sequence (P00730 whole entry): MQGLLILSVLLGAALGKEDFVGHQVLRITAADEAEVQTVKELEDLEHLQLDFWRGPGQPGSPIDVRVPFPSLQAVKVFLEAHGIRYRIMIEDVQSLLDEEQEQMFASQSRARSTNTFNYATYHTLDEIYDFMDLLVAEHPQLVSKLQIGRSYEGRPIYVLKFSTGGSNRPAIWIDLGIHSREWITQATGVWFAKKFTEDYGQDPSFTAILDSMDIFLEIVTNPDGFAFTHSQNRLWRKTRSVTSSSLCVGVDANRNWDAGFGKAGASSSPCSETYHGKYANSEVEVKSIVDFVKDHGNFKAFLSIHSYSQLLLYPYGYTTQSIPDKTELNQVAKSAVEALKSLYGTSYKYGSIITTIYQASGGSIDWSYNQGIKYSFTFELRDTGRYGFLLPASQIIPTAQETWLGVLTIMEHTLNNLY

[2] = Extent of enhancement of inhibitory potency of compound against carboxypeptidase A caused by zinc ion.
[3] = target: T2, Carboxypeptidase A1 (Bos taurus) (UniProt P00730); test: Apparent inhibitory constant of carboxypeptidase A (CPA) in presence of Zinc ion
T2 sequence (whole entry): T1 sequence (P00730 whole entry)

[4] = target: T2, Carboxypeptidase A1 (Bos taurus); test: Cooperative effect of the inhibitory zinc ion in the inhibition of CPA by the compound

Work on `O=C(O)C(CCCc1cnc[nH]1)Cc1ccccc1` (stereo unspecified) yielded a Ki [1] of 750 µM.

`O=C(O)C(Cc1ccccc1)Cc1c[nH]cn1` (stereo unspecified) showed a Ki/K'i [2] of 212, a K'i [3] of 1.01 µM and a Ki [1] of 214 µM. For the same compound, the Cooperative effect [4] was 0.0047.

`O=C(O)C(CCc1c[nH]cn1)Cc1ccccc1` (stereo unspecified) gave a Ki/K'i [2] of 51.7, a K'i [3] of 0.29 µM and a Ki [1] of 15 µM. For the same compound, the Cooperative effect [4] was 0.0056.

Compound `O=C(O)C(Cc1ccccc1)c1c[nH]cn1` (stereo unspecified) has a Ki/K'i [2] of 0.53, a K'i [3] of 0.49 µM and a Cooperative effect [4] of 1.88.

For `O=C(O)C(Cc1ccccc1)c1cnc[nH]1` (stereo unspecified), the Ki [1] was 0.26 µM.

Compound `O=C(O)C(CCCc1c[nH]cn1)Cc1ccccc1` (stereo unspecified) has a Ki/K'i [2] of 41.7, a K'i [3] of 18 µM and a Cooperative effect [4] of 0.024.
